Experimental data as given in patent publication EP2660245A1, “PHYSIOLOGICALLY ACTIVE BIS-DIALKYLAMIDES OF PHOSPHORYL-SUBSTITUTED 1,4-DICARBOXYLIC ACIDS AND METHOD FOR PRODUCING SAME” (Federalnoe Gosudarstvennoe Bydzhetnoe Uchrezhdenie Nauki …, priority 2010, dated 2012).

Tests used:
[1] = test system: rat cortical synaptosomes; assay: glutamate-induced 45Ca2+ uptake into rat cortical synaptosomes (P2-fraction); format: cell-based; details: for ^45Ca^2+ uptake (% vs. control) / activity at 100 µM: 5 min; for ^45Ca^2+ uptake (% vs. control): 100 µM; for IC50 / activity at 100 µM: Rattus norvegicus, glutamate-stimulated; for IC50: concentration at which 50% inhibition of calcium uptake takes place, four different concentrations; for activity at 100 µM: compound at 100 µM, synaptosomes of newborn Wistar rats, 5 minutes at 37°C, control = 100%, read-out: ^45Ca^2+ uptake (% vs. control)
Description: Neuroprotective action of the synthesized compounds was studied in P2-fraction of the rat brain cortex synaptosomes as an in vitro convenient model for evaluation of the ability of various compounds to influence calcium uptake into the nerve endings. In the present invention, the applicant used the method of detecting the uptake of ^45Ca^2+ into rat cortical synaptosomes when stimulated with glutamic acid.
Synaptosomes were obtained from the cerebral cortex of newborn Wistar rats (9-10 days) according to Hayosh's standard procedure [Hajos F.// Brain Res., 1975, Vol.93, No 3, pp. 485-489]. The brain was homogenized (glass-teflon) in 10 volumes of 0.32 M chilled sucrose (900 rpm). The homogenate was centrifuged for 10 minutes at 1500 g. The resulting supernatant was centrifuged for 20 minutes at 10000 g. To accumulate the radioactive label, the P2-synaptosomal fraction was suspended in incubation buffer A (132 mM NaCl, 5 mM KCl, 5 mM HEPES, 10 mM glucose, pH 7.4 (protein concentration of 1.5-2 mg/ml)). The final concentration of Ca^2+ was 1.25 mM (1.4 µCi/ml). […] glutamate was used to stimulate the uptake of ^45Ca^2+ in synaptosomes. After 5 minutes of the incubation with glutamate at 37°C, the uptake of ^45Ca^2+ was stopped by filtration through GF/B filters (Whatman, England), washing three times with cold buffer B (145 mM KCl, 10 mM Tris, 5.4 mM Trilon B, pH 7.4) [L.N. Petrova, S.O. Bachurin // Bull. Exp. Biol. Med., 2006., Vol. 142, No 7, pp.51-54]. The samples were analyzed by liquid scintillation beta analyzer (Russia). All tests were performed in three parallel replications in 2-3 independent experiments. The amount of ^45Ca^2+ uptaced into synaptosomes was determined by the difference in the content of the label in the glutamate-induced uptake into synaptosomes and uptake into synaptosomes without agonist, and expressed as percentages of the control (control = 100%).
Specific uptake of ^45Ca^2+ was calculated according to the following formula: K(43/21) = [(Ca4-Ca3)/(Ca2-Ca1)]⋅100%, [formula] wherein Ca1 is uptake of ^45Ca^2+ in the control (without glutamate and a test compound), Ca2 is uptake of ^45Ca^2+ in the presence of glutamate, Ca3 is uptake of ^45Ca^2+ in the presence of a test compound (without glutamate), Ca4 is uptake of ^45Ca^2+ in the presence of glutamate and a test compound. Statistical analysis was performed according to Student's test.
Testing of the compounds was performed at a concentration of 100 µM. Compounds 1-9 which have an inhibitory effect on the ^45Ca^2+ uptake into rat cortical synaptosomes were examined in detail at four different concentrations to determine the IC50 value (concentration of a compound at which 50% inhibition of calcium uptake takes place).

[2] = acute toxicity (LD50) according to the standard method; details: in vivo

Row | SMILES | ^45Ca^2+ uptake (% vs. control) [1] [%] | IC50 [1] [µM] | LD50 [2] [mg/kg] | activity at 100 µM [1] [%]
1 | CCCCN(CCCC)C(=O)CC(C(=O)N(CCCC)CCCC)P(=O)(c1ccccc1)c1ccccc1 (centres unmarked) [Compound 1, N^1,N^1,N^4,N^4-tetrabutyldiamide of 2-(diphenylphosphinoyl)succinic acid] | 0 | 14.1 | > 100 | –
2 | CCCCN(CCCC)C(=O)CC(C(=O)N(CCCC)CCCC)P(=O)(c1ccccc1C)c1ccccc1C (centres unmarked) [Compound 2] | 6.6±3.3 | 9.3 | > 100 | –
3 | CCCCN(CCCC)C(=O)CC(C(=O)N(CCCC)CCCC)P(=O)(c1cc(C)ccc1C)c1cc(C)ccc1C (centres unmarked) [Compound 3, N^1,N^1,N^4,N^4-tetrabutyldiamide of 2-[bis(2,5-dimethylphenyl)-phosphinoyl]succinic acid] | – | 18.6 | > 100 | 7.7 ± 6.4
4 | CCCCN(CCCC)C(=O)CC(C(=O)N(CCCC)CCCC)P(=O)(c1ccc(N(C)C)cc1)c1ccc(N(C)C)cc1 (centres unmarked) [Compound 4, N^1,N^1,N^4,N^4-tetrabutyldiamide of 2-[bis(4-dimethylaminophenyl)-phosphinoyl]succinic acid] | – | 7.9 | > 100 | 0
5 | CCCCN(CCCC)C(=O)CC(C(=O)N(CCCC)CCCC)P(=O)(c1ccc(Cl)cc1)c1ccc(Cl)cc1 (centres unmarked) [Compound 5, N^1,N^1,N^4,N^4-tetrabutyldiamide of 2-[bis(4-chlorophenyl)-phosphinoyl]succinic acid] | – | 4.8 | > 100 | 11.7 ± 7
6 | CCCCN(CCCC)C(=O)CC(C(=O)N(CCCC)CCCC)P(=O)(c1ccc(OC)cc1)c1ccc(OC)cc1 (centres unmarked) [Compound 6, N^1,N^1,N^4,N^4-tetrabutyldiamide of 2-[bis(4-methoxyphenyl)-phosphinoyl]succinic acid] | – | 17 | > 100 | 7.2 ± 1.3
7 | CCCCN(CCCC)C(=O)CC(C(=O)N(CCCC)CCCC)P(=O)(CCCC)CCCC (centres unmarked) [Compound 7, N^1,N^1,N^4,N^4-tetrabutyldiamide of 2-(di-n-butylphosphinoyl)succinic acid] | – | 44.7 | > 100 | 0
8 | CCCCN(CCCC)C(=O)CC(CP(=O)(c1ccc(OC)cc1)c1ccc(OC)cc1)C(=O)N(CCCC)CCCC (centres unmarked) [Compound 8, N^1,N^1,N^4,N^4-tetrabutyldiamide of 2-[bis(4-methoxyphenyl)-phosphinoylmethyl]succinic acid] | 0 | 15.5 | > 100 | –
9 | CCCCN(CCCC)C(=O)CC(CP(=O)(c1cc(C)ccc1C)c1cc(C)ccc1C)C(=O)N(CCCC)CCCC (centres unmarked) [Compound 9, N^1,N^1,N^4,N^4-tetrabutyldiamide of 2-[bis(2,5-dimethylphenyl)-phosphinoylmethyl]succinic acid] | – | 5.1 | > 100 | 4.9 ± 4.9
10 | CCN(CC)C(=O)CC(CP(=O)(c1ccccc1)c1ccccc1)C(=O)N(CC)CC (centres unmarked) [Compound 10, N^1,N^1,N^4,N^4-tetraethyldiamide of 2-(diphenylphosphinoylmetyl)succinic acid] | – | – | > 100 | 63.8 ± 12
11 | CN(C)c1ccc(P(=O)(c2ccc(N(C)C)cc2)C(CC(=O)O)C(=O)O)cc1 (centres unmarked) [Compound 11, 2-[bis-(4-Dimethylaminophenyl)-phosphinoyl]succinic acid, reference compound] | – | – | – | 117 ± 3.9
12 | Cc1ccc(C)c(P(=O)(c2cc(C)ccc2C)C(CC(=O)O)C(=O)O)c1 (centres unmarked) [Compound 12, 2-[bis-(2,5-Dimethylphenyl)-phosphinoyl]succinic acid, reference compound] | – | – | – | 97.9 ± 11.4
13 | CCP(=O)(CC)C(CC(=O)O)C(=O)O (centres unmarked) [Compound 13, 2-(Diethylphosphinoyl)succinic acid, reference compound] | – | – | – | 120 ± 17.3
14 | CCCCN(CCCC)C(=O)CP(=O)(c1ccccc1)c1ccccc1 [Compound 16, N,N-Dibutylamide of 2-(diphenylphosphinoyl)acetic acid, reference compound] | – | – | – | 96.2 ± 2.9
15 | CCN(CC)C(=O)CP(=O)(c1ccccc1)c1ccccc1 [Compound 17, N,N-Diethylamide of 2-(diphenylphosphinoyl)acetic acid, reference compound] | – | – | – | 95.4
16 | CCN(CC)CC(C(=O)N(CC)CC)P(=O)(c1ccccc1)c1ccccc1 (centres unmarked) [Compound 18, N,N-Diethylamide of 2-(diphenylphosphinoyl)-3-(diethylamino)propionic acid, reference compound] | – | – | – | 97.4
